# Experimental data: patent publication US6737383B1, “Herbicidal oxadiazolidines” (priority 1999, dated 2004)
# How the values were obtained:
# pitted morningglory = assay: Test D pitted morningglory; type: in vivo, Ipomoea lacunosa; details: Postemergence, 0 to 100 scale
# Green foxtail [1] = assay: Test D green foxtail; type: in vivo; details: Postemergence, 0 to 100 scale, 0 no injury, 100 complete control
# Spanishneedles = assay: Test D Spanishneedles; type: in vivo, Bidens bipinnata; details: Postemergence, 0 to 100 scale
# common ragweed = assay: Test D common ragweed; type: in vivo, Ambrosia elatior; details: Postemergence, 0 to 100 scale
# Green foxtail [2] = assay: Test D green foxtail; type: in vivo; details: Postemergence, 0 to 100 scale, 0 no injury, 100 complete control; remark: listed apart in the source
# goosegrass = assay: Test D goosegrass; type: in vivo, Eleusine indica; details: Postemergence, 0 to 100 scale
# surinam grass = assay: Test D surinam grass; type: in vivo, Brachiaria decumbens; details: Postemergence, 0 to 100 scale
# guineagrass = assay: Test D guineagrass; type: in vivo, Panicum maximum; details: Postemergence, 0 to 100 scale
# Johnson grass = assay: Test D Johnson grass; type: in vivo, Sorghum halepense; details: Postemergence, 0 to 100 scale
# purple nutsedge = assay: Test D purple nutsedge; type: in vivo, Cyperus rotundus; details: Postemergence, 0 to 100 scale
# Green foxtail [3] = assay: Test D green foxtail; type: in vivo; details: Postemergence, 0 to 100 scale, 0 no injury, 100 complete control; remark: listed apart in the source
# common groundsel = assay: Test D common groundsel; type: in vivo, Senecio vulgaris; details: Postemergence, 0 to 100 scale
# Green foxtail [4] = assay: Test D green foxtail; type: in vivo; details: Rate 250 g/ha; Postemergence; 0 to 100 scale
# tall mallow = assay: Test D tall mallow; type: in vivo, Malva sylvestris; details: Postemergence, 0 to 100 scale
# sandbur = assay: Test D sandbur; type: in vivo, Cenchrus echinatus; details: Postemergence, 0 to 100 scale
# dallisgrass = assay: Test D dallisgrass; type: in vivo, Paspalum dilatatum; details: Postemergence, 0 to 100 scale
# common pursiane = assay: Test D common purslane; type: in vivo, Portulaca oleracea; details: Postemergence, 0 to 100 scale
# [5] = Rate 16 g/ha, 0 no injury, 100 complete control
# [6] = Rate 32 g/ha, 0 no injury, 100 complete control
# [7] = Rate 64 g/ha, 0 no injury, 100 complete control
# [8] = Rate 125 g/ha, 0 no injury, 100 complete control
structure (smiles),measurement,setting,value
CC(C)N(C(=O)n1oc(=O)n(CC2CCCO2)c1=O)c1ccc(F)cc1 (stereo not shown) [Compound 343],"Plant response rating, P. morninglory",pitted morningglory; [5],0
same,"Plant response rating, P. morninglory",pitted morningglory; [6],0
same,"Plant response rating, P. morninglory",pitted morningglory; [7],0
same,"Plant response rating, P. morninglory",pitted morningglory; [8],0
same,"Plant response rating, P. morninglory",pitted morningglory; Rate 250 g/ha,0
same,"Plant response rating, Green foxtail",Green foxtail [1]; Rate 16 g/ha,0
same,"Plant response rating, Green foxtail",Green foxtail [1]; Rate 32 g/ha,100
same,"Plant response rating, Spanishneedles",Spanishneedles; [5],0
same,"Plant response rating, Spanishneedles",Spanishneedles; [6],0
same,Spanishneedles plant response rating,Spanishneedles; [7],0
same,Spanishneedles plant response rating,Spanishneedles; [8],0
same,"Plant response rating, Spanishneedles",Spanishneedles; Rate 250 g/ha,20
same,"Plant response rating, C. ragweed",common ragweed; [5],0
same,"Plant response rating, C. ragweed",common ragweed; [6],0
same,"Plant response rating, C. ragweed",common ragweed; [7],0
same,"Plant response rating, C. ragweed",common ragweed; [8],60
same,"Plant response rating, C. ragweed",common ragweed; Rate 250 g/ha,90
same,"Plant response rating, Green foxtail",Green foxtail [2]; Rate 16 g/ha,0
same,"Plant response rating, Green foxtail",Green foxtail [2]; Rate 32 g/ha,100
same,"Plant response rating, Goosegrass",goosegrass; [5],40
same,"Plant response rating, Goosegrass",goosegrass; [6],80
same,"Plant response rating, Goosegrass",goosegrass; [7],90
same,"Plant response rating, Goosegrass",goosegrass; [8],90
same,"Plant response rating, Goosegrass",goosegrass; Rate 250 g/ha,100
same,"Plant response rating, Surinam grass",surinam grass; [5],0
same,"Plant response rating, Surinam grass",surinam grass; [6],20
same,Surinam grass plant response rating,surinam grass; [7],20
same,Surinam grass plant response rating,surinam grass; [8],70
same,"Plant response rating, Surinam grass",surinam grass; Rate 250 g/ha,100
same,"Plant response rating, Guineagrass",guineagrass; [5],0
same,"Plant response rating, Guineagrass",guineagrass; [6],0
same,Guineagrass plant response rating,guineagrass; [7],80
same,"Plant response rating, Guineagrass",guineagrass; [7],0
same,"Plant response rating, Guineagrass",guineagrass; [8],50
same,"Plant response rating, Guineagrass",guineagrass; Rate 250 g/ha,100
same,"Plant response rating, Johnsongrass",Johnson grass; [5],0
same,"Plant response rating, Johnsongrass",Johnson grass; [6],0
same,"Plant response rating, Johnsongrass",Johnson grass; [7],20
same,"Plant response rating, Johnsongrass",Johnson grass; [8],20
same,"Plant response rating, Johnsongrass",Johnson grass; Rate 250 g/ha,100
same,"Plant response rating, Purple nutsedge",purple nutsedge; [5],0
same,"Plant response rating, Purple nutsedge",purple nutsedge; [6],0
same,Purple nutsedge plant response rating,purple nutsedge; [7],0
same,Purple nutsedge plant response rating,purple nutsedge; [8],0
same,"Plant response rating, Purple nutsedge",purple nutsedge; Rate 250 g/ha,0
same,Green foxtail plant response rating,Green foxtail [3]; Rate 64 g/ha,100
same,Green foxtail plant response rating,Green foxtail [3]; Rate 125 g/ha,100
same,"Plant response rating, Com. groundsel",common groundsel; [5],0
same,"Plant response rating, Com. groundsel",common groundsel; [6],40
same,"Plant response rating, Com. groundsel",common groundsel; [7],100
same,"Plant response rating, Com. groundsel",common groundsel; [8],100
same,"Plant response rating, Com. groundsel",common groundsel; Rate 250 g/ha,100
same,"Plant response rating, Green foxtail",Green foxtail [4],100
same,"Plant response rating, Tall Mallow",tall mallow; [5],0
same,"Plant response rating, Tall Mallow",tall mallow; [6],0
same,Tall Mallow plant response rating,tall mallow; [7],0
same,Tall Mallow plant response rating,tall mallow; [8],0
same,"Plant response rating, Tall Mallow",tall mallow; Rate 250 g/ha,30
same,"Plant response rating, Sandbur",sandbur; [5],0
same,"Plant response rating, Sandbur",sandbur; [6],0
same,Sandbur plant response rating,sandbur; [7],0
same,Sandbur plant response rating,sandbur; [8],50
same,"Plant response rating, Sandbur",sandbur; Rate 250 g/ha,50
same,"Plant response rating, Dallisgrass",dallisgrass; [5],0
same,"Plant response rating, Dallisgrass",dallisgrass; [6],30
same,"Plant response rating, Dallisgrass",dallisgrass; [7],90
same,"Plant response rating, Dallisgrass",dallisgrass; [8],90
same,"Plant response rating, Dallisgrass",dallisgrass; Rate 250 g/ha,100
same,"Plant response rating, C. purslane",common pursiane; [5],0
same,"Plant response rating, C. purslane",common pursiane; [6],0
same,"Plant response rating, C. purslane",common pursiane; [7],0
same,"Plant response rating, C. purslane",common pursiane; [8],0
same,"Plant response rating, C. purslane",common pursiane; Rate 250 g/ha,0
